{"source": "PubChem BioAssay AID389", "about": "(SGCOxCompounds, 2006)"}
{"biological_target": "Serine/threonine-protein kinase PAK 4 (Homo sapiens) (UniProt O96013)", "sequence (O96013 whole entry, looked up)": "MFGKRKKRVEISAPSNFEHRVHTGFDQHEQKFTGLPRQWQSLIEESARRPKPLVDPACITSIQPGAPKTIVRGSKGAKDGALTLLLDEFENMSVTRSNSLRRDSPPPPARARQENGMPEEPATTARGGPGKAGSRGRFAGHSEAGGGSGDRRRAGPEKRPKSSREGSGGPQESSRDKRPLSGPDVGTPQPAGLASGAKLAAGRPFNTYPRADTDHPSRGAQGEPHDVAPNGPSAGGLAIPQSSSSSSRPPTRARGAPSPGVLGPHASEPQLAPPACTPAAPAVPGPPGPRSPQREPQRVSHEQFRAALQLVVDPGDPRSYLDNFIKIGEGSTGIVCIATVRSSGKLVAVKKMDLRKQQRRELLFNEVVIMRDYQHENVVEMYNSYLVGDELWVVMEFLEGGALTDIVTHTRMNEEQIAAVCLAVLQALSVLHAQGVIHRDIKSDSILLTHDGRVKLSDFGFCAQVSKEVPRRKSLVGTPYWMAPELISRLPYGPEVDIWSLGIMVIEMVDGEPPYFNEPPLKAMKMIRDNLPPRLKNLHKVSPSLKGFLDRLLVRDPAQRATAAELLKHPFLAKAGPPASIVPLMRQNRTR", "test": "compound-induced PAK4 thermal stabilization – biophysical, human, DSF, SYPRO orange (AID 389)", "conditions": "recombinant PAK4 DSF thermal shift, at 10 µM, protein 2 µM, buffer 10 mM HEPES, pH 7.5, NaCl 150 mM, active compounds read high", "units": {"Tm shift": "Celsius"}}
{"smiles": "N#CCCc1ccc2c(c1)-c1[nH]c3ccc(-n4oo4)cc3c1CC(=O)N2", "Tm shift": 3.68}
{"smiles": "NCCCn1cc(C2=C(c3c[nH]c4ccccc34)C(=O)NC2=O)c2ccccc21", "Tm shift": 4.27}
{"smiles": "O=c1[nH]c(O)c2c1c1c3ccccc3nc1n1cncc21", "Tm shift": 3.8}
{"smiles": "NCCNc1ncc(C(N)=O)c(Nc2cccc(C(F)(F)F)c2)n1", "Tm shift": 5.9}
{"smiles": "CC(C)C(CO)Nc1nc(Nc2cccc(Cl)c2)c2ncn(C(C)C)c2n1", "note": "(stereo not drawn)", "Tm shift": 4.7}
{"smiles": "Nc1nc(Nc2ccc(S(N)(=O)=O)cc2)nn1C(=S)Nc1c(F)cccc1F", "Tm shift": 6.03}
{"smiles": "O=Nc1c(-c2c(O)[nH]c3ccc(I)cc23)[nH]c2ccccc12", "Tm shift": 3.73}
{"smiles": "CC(C)n1cnc2c(Nc3cccc(Cl)c3)nc(NCCO)nc21", "Tm shift": 3.7}
{"smiles": "Cn1cc(/C=C2\\C(=O)Nc3ccc(S(N)(=O)=O)cc32)c2ccccc21", "Tm shift": 3.69}
{"smiles": "NC(=O)Nc1sc(-c2ccccc2)cc1C(N)=O", "Tm shift": 4.28}
{"smiles": "OCC(O)CCO/N=C1/C(c2c(O)[nH]c3ccccc23)=Nc2ccccc21", "note": "(stereo not drawn)", "Tm shift": 4.7}
{"smiles": "O=C1NC(=O)c2c1c1c3ccccc3n3c1c1c2c2ccccc2n1[C@@H]1CCC3O1", "Tm shift": 4.92}
{"smiles": "CCN(CC)CCNC(=O)c1c(C)[nH]c(/C=C2\\C(=O)Nc3ccc(Cl)cc32)c1C", "Tm shift": 6.4}
{"smiles": "COc1cc(/C=C/C(=O)CC(=O)/C=C/c2ccc(O)c(OC)c2)ccc1O", "Tm shift": 3.34}
{"smiles": "CCn1cnc2c(Nc3cccc(Cl)c3)nc(N[C@@H]3CCCC[C@@H]3N)nc21", "Tm shift": 6.44}
{"smiles": "CC(O)(O)C1(O)C[C@@H]2O[C@@]1(C)n1c3ccccc3c3c4c(c5c6ccccc6n2c5c31)C(=O)NC4", "note": "(stereo partly drawn)", "Tm shift": 3.9}
{"smiles": "O=C1NCc2c1c1c3ccccc3[nH]c1c1[nH]c3ccccc3c21", "Tm shift": 3.8}
{"smiles": "O=C(c1ccc(Nc2nccc(-c3cc4ccccc4s3)n2)cc1)N1CCC(N2CCCC2)CC1", "Tm shift": 3.23}
{"smiles": "Cc1cc(Nc2nc(-c3ccccc3)nc3ccccc23)n[nH]1", "Tm shift": 5.9}
{"smiles": "N=C(N)SCCCn1cc(C2=C(c3c[nH]c4ccccc34)C(=O)NC2=O)c2ccccc21", "Tm shift": 3.43}
{"smiles": "Clc1ccc(-c2cnc3ccc(NC4CCOCC4)nn23)cc1", "Tm shift": 3.1}
{"smiles": "O=C1Cc2c([nH]c3ccc(Br)cc23)-c2ccccc2N1", "Tm shift": 4.62}
{"smiles": "NS(=O)(=O)c1ccc(Nc2nc(OCC3CCCCC3)c3[nH]cnc3n2)cc1", "Tm shift": 3.8}
